# PMC2806825, “The Expression Level of CB1 and CB2 Receptors Determines Their Efficacy at Inducing Apoptosis in Astrocytomas” (PLoS ONE, 2010)
# Assays:
# [1] = target: T1, CB2 receptors (Mus musculus, UniProt P47936); test: AKT phosphorylation by Luminex multiplex immunoassay in CB2-expressing DBT subclones; type: cell-based; settings: for AKT phosphorylation: 1 µM
# T1 construct: expressed in transfected cells
# Procedure: (§1) Cells were expanded in Costar 24-well plates (10^5 cells per well) in culture media (0.5 ml per well). Once they reached ∼70% confluence, they were rinsed with PBS and kept for an additional 24 hrs in serum-deprived media, at which time point drugs or vehicle (DMSO, 0.1%) prepared in 50 µl serum-deprived media were directly added to each well for the corresponding number of minutes. We chose to directly administer the drugs to cell culture media instead of replacing the media to avoid stress-induced increases in basal kinase phosphorylation (Figure S1). To quantify Erk phosphorylation, reactions were stopped by removing the media and adding NuPAGE® LDS sample buffer (300 µl, Invitrogen, Carlsbad, CA) supplemented with 2-mercaptoethanol (1%). An aliquot of each sample (20 µl) was loaded onto NuPAGE® 4–12% Bis-Tris pre-cast gels (Inivtrogen) and electrophoresed according to the manufacturer's instructions. Gels were electrophoretically transferred to P-nitrocellulose membrane (Millipore, Billerica, MA) and blocked in LiCOR blocking buffer (LiCOR, Lincoln, NE) for 1 hr at 25°C. Membranes were then incubated in blocking buffer containing rabbit anti-phospho-p44/42 antibody (1∶1000, Cell Signaling Technology, Inc., Danvers, MA) for 1 hr at 25°C. Membranes were washed 3 times with Tris (50 mM) buffered saline containing 0.1% Tween-20 (TBS-T). Membranes were then incubated in blocking buffer containing donkey anti-rabbit antibody conjugated to IRDye 800 (1∶7500, Rockland Immunochemicals, Inc., Gilbertsville, PA) for 1 hr at 25°C. Membranes were washed 3 times with TBS-T. The fluorescence intensity of each band was quantified using the LiCOR Odyssey. To quantify AKT, JNK, p38 and GSKβ phosphorylation, reactions were stopped by addition of NP40 cell lysis buffer (100 µl, Invitrogen). Substrate phosphorylation was quantified using a Biosource Multiplex Bead Immunoassay kit (Invitrogen) according to the manufacturer's instructions and using a Luminex 100™ instrument (Luminex, Austin, TX).
# [2] = target: T1, CB2 receptors; test: ERK1/2 phosphorylation by Western blot in CB2-expressing DBT subclones; type: cell-based
# Procedure: as §1
# [3] = tested on: DBT cells; test: Cell viability by WST-1 conversion, wild type DBT cells and DBT subclones; type: cell-based, mouse
# Procedure: (§2) Cells were expanded in 24-well plates (10^5 cells per well) in culture media (0.5 ml per well). Once they reached ∼70% confluence, they were rinsed with PBS and kept for an additional 24 hrs in serum-deprived media, at which time drugs or vehicle (DMSO, 0.1%) prepared in 50 µl serum-deprived media were directly added to each well. After 1, 3, or 5 days, cell viability was assessed using the Cell Proliferation Reagent WST-1 (Roche, Indianapolis, IN). Briefly, WST-1 reagent (50 µl) was added to each well for 4 hrs at 37°C with 5% CO2, and then WST-1 products were read at 450 nm using Packard SpectraCount™. Apoptosis was assessed using PI and annexin V (Pacific Blue™, Invitrogen). Briefly, cells were detached using trypsin, rinsed with 25°C PBS and resuspended to a density of 10^6 cells per ml of annexin-binding buffer (10 mM HEPES, 140 mM NaCl, 2.5 mM CaCl2, pH 7.4). PI (100 ng) and annexin V were added to 100 µl of cell suspension and incubated at 25°C for 30 min. Additional annexin-binding buffer was added (400 µl) and samples were sorted (10,000 events) on a LSR II flow cytometer (BD Biosciences, San Jose, CA) and the data analyzed using FlowJo (Tree Star, Inc., Ashland, OR).
# [4] = tested on: wild type DBT cells; test: Cell viability by WST-1 conversion, wild type DBT cells; type: cell-based, mouse
# Procedure: as §2
# [5] = tested on: CB1-low DBT cells; test: Cell viability by WST-1 conversion, CB1-low DBT cells; type: cell-based, mouse
# Procedure: as §2
# [6] = tested on: wild-type DBT cells; test: Radioligand binding with [3H]CP-55,940 on wild-type DBT cells; parameters: species or system mouse
# Procedure: (§3) Cells (10^6) were expanded in 10 cm dishes using 10 ml culture media. Once they reached ∼70% confluence, they were rinsed with PBS and kept for an additional 24 hrs in serum-deprived media, which is composed of DMEM+GlutaMAX™-I supplemented with fatty acid free bovine serum albumin (0.1%, BSA, Sigma-Aldrich, St. Louis, MO) and insulin-transferin-sodium selenite liquid media (1×, ITS, Sigma-Aldrich). For qPCR, media was removed and cells washed once with 10 ml PBS, then cells were scraped and total RNA isolated using RNeasy extraction kit (QIAGEN) according to the manufacturer's instructions. The following primer and TaqMan probe sequences were generated using Primer Express (Perkin-Elmer Applied Biosystems, Foster City, CA): mCB1 forward, 5′-[…]-3′, reverse, 5′-[…]-3′, probe, 5′-([…])-3′; mCB2 forward, 5′-[…]-3′, reverse, 5′-[…]-3′, probe, 5′-([…])-3′. Total RNA from each sample (2.5 ng) was reverse transcribed in the same 10 µl quantitative PCR reaction mix using the Brilliant Single-Step Quantitative RT-PCR Core Reagent Kit (Stratagene, La Jolla, CA). Combined reactions were carried out on a Stratagene Mx3000P Real-Time Detection System using the following protocol: 30 min single-strand synthesis reaction at 45°C; 40-cycle, two-step PCR amplification (15 sec at 95°C followed by 1 min at 56°C). […] Radioactivity on filters was measured using scintillation counter.
# [7] = target: T2, CB1 receptors (Mus musculus, UniProt P47746); test: Radioligand saturation binding with [3H]CP-55,940 on membranes of CB1-expressing DBT subclones; settings: mean of 3–5 determinations
# T2 construct: expressed in transfected cells
# T2 sequence (P47746 whole entry): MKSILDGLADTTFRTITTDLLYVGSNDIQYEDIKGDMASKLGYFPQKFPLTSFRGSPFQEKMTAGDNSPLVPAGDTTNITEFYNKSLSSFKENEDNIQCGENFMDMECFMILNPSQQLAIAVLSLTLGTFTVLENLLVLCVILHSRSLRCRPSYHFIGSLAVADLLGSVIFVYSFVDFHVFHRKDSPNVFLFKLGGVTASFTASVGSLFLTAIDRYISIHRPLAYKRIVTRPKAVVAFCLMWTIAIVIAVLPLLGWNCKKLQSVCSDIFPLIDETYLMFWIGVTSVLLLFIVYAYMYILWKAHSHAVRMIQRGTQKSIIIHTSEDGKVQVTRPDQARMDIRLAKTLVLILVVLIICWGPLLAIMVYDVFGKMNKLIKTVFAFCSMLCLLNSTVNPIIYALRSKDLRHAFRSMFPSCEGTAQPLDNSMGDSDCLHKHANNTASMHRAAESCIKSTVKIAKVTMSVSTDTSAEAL
# Procedure: as §3, with “56°C). Duplicate reactions with and without reverse transcriptase were run for each sample. For radioligand binding, media was removed and cells washed once with 10 ml PBS. Cells were scraped in 1 ml buffer (50 mM Tris-HCl, 3 mM MgCl2, 1 mM EDTA, pH 7.4) and pulse homogenized 10 sec using PRO200 tissue homogenizer (PRO Scientific, Oxford, CT). Crude membrane preparations were generated by centrifugation of cell homogenates for 20 min at >10,000×g. Cell pellets were resuspended in buffer containing BSA (0.1%, fatty acid free) and 50 µg protein added to siliconized glass tubes for assay.” for “56°C).”
# [8] = target: T1, CB2 receptors; test: Radioligand saturation binding with [3H]CP-55,940 on membranes of CB2-expressing DBT subclones; settings: mean of 3–5 determinations
# Procedure: as §3, with “56°C). Duplicate reactions with and without reverse transcriptase were run for each sample. For radioligand binding, media was removed and cells washed once with 10 ml PBS. Cells were scraped in 1 ml buffer (50 mM Tris-HCl, 3 mM MgCl2, 1 mM EDTA, pH 7.4) and pulse homogenized 10 sec using PRO200 tissue homogenizer (PRO Scientific, Oxford, CT). Crude membrane preparations were generated by centrifugation of cell homogenates for 20 min at >10,000×g. Cell pellets were resuspended in buffer containing BSA (0.1%, fatty acid free) and 50 µg protein added to siliconized glass tubes for assay.” for “56°C).”
# [9] = tested on: ERK1/2 phosphorylation in wild-type DBT cells; test: ERK1/2 phosphorylation in wild-type DBT cells; type: cell-based, mouse; settings: 1 µM
# Procedure: as §1, with “Gels were electrophoretically transferred to P-nitrocellulose membrane (Millipore, Billerica, MA) and blocked in LiCOR blocking buffer (LiCOR, Lincoln, NE) for 1 hr at 25°C. Membranes were then incubated in blocking buffer containing rabbit anti-phospho-p44/42 antibody (1∶1000, Cell Signaling Technology, Inc., Danvers, MA) for 1 hr at 25°C. Membranes were washed 3 times with Tris (50 mM) buffered saline containing 0.1% Tween-20 (TBS-T). Membranes were then incubated in blocking buffer containing donkey anti-rabbit antibody conjugated to IRDye 800 (1∶7500, Rockland Immunochemicals, Inc., Gilbertsville, PA) for 1 hr at 25°C.” left out
# [10] = tested on: AKT phosphorylation in wild type DBT cells; test: AKT phosphorylation in wild type DBT cells; type: cell-based, mouse; settings: 1 µM
# Procedure: as §1, with “Gels were electrophoretically transferred to P-nitrocellulose membrane (Millipore, Billerica, MA) and blocked in LiCOR blocking buffer (LiCOR, Lincoln, NE) for 1 hr at 25°C. Membranes were then incubated in blocking buffer containing rabbit anti-phospho-p44/42 antibody (1∶1000, Cell Signaling Technology, Inc., Danvers, MA) for 1 hr at 25°C. Membranes were washed 3 times with Tris (50 mM) buffered saline containing 0.1% Tween-20 (TBS-T). Membranes were then incubated in blocking buffer containing donkey anti-rabbit antibody conjugated to IRDye 800 (1∶7500, Rockland Immunochemicals, Inc., Gilbertsville, PA) for 1 hr at 25°C.” left out
# [11] = tested on: CB1-low DBT cells; test: Apoptosis by propidium iodide and annexin V FACS, CB1-low DBT cells; type: cell-based, mouse; settings: 1 µM
# Procedure: as §2
# [12] = tested on: GSK-3β phosphorylation; test: GSK-3β phosphorylation by Luminex multiplex immunoassay in DBT subclones; type: cell-based, mouse; settings: any of the subclones, throughout 30 min incubation; data not shown
# Procedure: as §1, with “Gels were electrophoretically transferred to P-nitrocellulose membrane (Millipore, Billerica, MA) and blocked in LiCOR blocking buffer (LiCOR, Lincoln, NE) for 1 hr at 25°C. Membranes were then incubated in blocking buffer containing rabbit anti-phospho-p44/42 antibody (1∶1000, Cell Signaling Technology, Inc., Danvers, MA) for 1 hr at 25°C. Membranes were washed 3 times with Tris (50 mM) buffered saline containing 0.1% Tween-20 (TBS-T). Membranes were then incubated in blocking buffer containing donkey anti-rabbit antibody conjugated to IRDye 800 (1∶7500, Rockland Immunochemicals, Inc., Gilbertsville, PA) for 1 hr at 25°C.” left out
# [13] = tested on: wild-type DBT cells; test: Apoptosis by propidium iodide and annexin V FACS, wild-type DBT cells; type: cell-based, mouse; settings: 10 µM
# Procedure: as §2
# [14] = target: T1, CB2 receptors; test: JNK and p38 phosphorylation by Luminex multiplex immunoassay in CB2-high DBT clone; type: cell-based; settings: 1 µM, lasted throughout 30 min incubation
# Procedure: as §1, with “Gels were electrophoretically transferred to P-nitrocellulose membrane (Millipore, Billerica, MA) and blocked in LiCOR blocking buffer (LiCOR, Lincoln, NE) for 1 hr at 25°C. Membranes were then incubated in blocking buffer containing rabbit anti-phospho-p44/42 antibody (1∶1000, Cell Signaling Technology, Inc., Danvers, MA) for 1 hr at 25°C. Membranes were washed 3 times with Tris (50 mM) buffered saline containing 0.1% Tween-20 (TBS-T). Membranes were then incubated in blocking buffer containing donkey anti-rabbit antibody conjugated to IRDye 800 (1∶7500, Rockland Immunochemicals, Inc., Gilbertsville, PA) for 1 hr at 25°C.” left out
# [15] = antagonist 3 µM added 10 min before CP, CB2 subclones
# T1 sequence (P47936 whole entry): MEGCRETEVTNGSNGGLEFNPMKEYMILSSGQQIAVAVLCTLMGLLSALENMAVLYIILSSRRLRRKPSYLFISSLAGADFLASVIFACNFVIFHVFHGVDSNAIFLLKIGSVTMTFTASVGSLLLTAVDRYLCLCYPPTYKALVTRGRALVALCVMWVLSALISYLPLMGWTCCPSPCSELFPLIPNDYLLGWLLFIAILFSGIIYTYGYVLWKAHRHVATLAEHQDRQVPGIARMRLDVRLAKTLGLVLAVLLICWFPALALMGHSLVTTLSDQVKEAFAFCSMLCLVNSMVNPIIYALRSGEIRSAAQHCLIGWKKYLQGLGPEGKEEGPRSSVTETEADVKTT
compound,measurement,setting,value
"5- (4-chloro-3- methyl- phenyl)-1- [(4- methylphenyl)methyl]- N-(1,3,3- trimethylnorbornan- 2- yl)- pyrazole- 3- carboxamide [SR144528]","Effect on CP-55,940 (1 µM)-induced AKT phosphorylation",[1]; [15],antagonized
same,"Effect on CP-55,940 (1 µM)-induced ERK1/2 phosphorylation",[2]; [15],significantly attenuated
CCN(CC)CCCCN1c2ccccc2Oc2ccc(Cl)cc21.Cl [Inhibitor X],"Effect on killing by 1 µM CP-55,940 (WST-1)","[3]; 5 µM added 10 min before CP, DBT subclones normally resistant, 5 days","uncovered the ability of 1 µM CP-55,940 to kill"
same,Effect by itself on cell viability (WST-1),"[3]; 5 µM, DBT subclones, 5 days",no effect
COc1cccc(-c2cc(=O)c3ccccc3o2)c1N [PD98059],"Effect on 10 µM CP-55,940-induced killing","[4]; inhibitor 10 µM pretreatment, wild-type DBT cells",partially prevented
same,"Effect on 1 µM CP-55,940-induced killing","[5]; inhibitor 10 µM pretreatment, CB1-low DBT cells",partially prevented
"Cc1c(C(=O)NN2CCCCC2)nn(-c2ccc(Cl)cc2Cl)c1-c1ccc(Cl)cc1 [SR141716A, 5-(4-chlorophenyl)-1-(2,4-dichlorophenyl)-4-methyl-N-(1-piperidyl)-1H-pyrazole-3-carboxamide]","Effect on 10 µM CP-55,940-induced cell death","[4]; antagonist 5 µM pretreatment, wild type DBT cells",did not affect
same,"Effect on 1 µM CP-55,940-induced killing","[5]; antagonist 5 µM pretreatment, CB1-low DBT cells",blocked
"CCCCCCC(C)(C)c1ccc([C@@H]2C[C@H](O)CC[C@H]2CCCO)c(O)c1 [[^3H]CP-55,940]",Radioligand binding,[6],no binding
same,Kd,[7]; CB1-high subclone E5,0.7 nM
same,Kd,[7]; CB1-low subclone E3,0.8 nM
same,Kd,[7]; CB1-mid subclone E7,0.8 nM
same,Kd,[8]; CB2-high subclone 1D6,0.6 nM
same,Kd,[8]; CB2-low subclone 2G5,0.8 nM
same,Kd,[8]; CB2-mid subclone 2H1,0.4 nM
"(−)-cis-3-[2-hydroxy-4-(1,1-dimethylheptyl)phenyl]-trans-4-(3-hydroxypropyl) cyclohexanol [CP-55,940]",ERK1/2 phosphorylation,[9],did not affect
same,EC50,"[4]; wild type DBT cells, Figure 3c, read-out: EC50 of cell death (WST-1)",5000 nM
same,AKT phosphorylation,[10],did not increase
same,Cell death by apoptosis,[11]; 3 days after treatment,15%
same,Cell death by apoptosis,[11]; after five days,48%
same,Cell death (WST-1),"[5]; 1 µM, CB1-low DBT subclone, five days after treatment",~50%
same,EC50,"[5]; CB1-low DBT cells, Figure 3c, read-out: EC50 of cell killing (WST-1)",560 nM
same,AKT phosphorylation,"[1]; CB2-high clone, during the entire 30 min incubation",above 250 % of basal
same,AKT phosphorylation,[1]; CB2-high subclone,most pronounced increase
same,AKT phosphorylation,[1]; CB2-low and CB2-mid subclones,"small, but significant increase"
same,Phosphorylation state of GSK-3β,[12],did not significantly affect
same,Cell death (WST-1),"[3]; 10 µM, wild type DBT cells and all six subclones, five days after treatment",35–90%
same,ERK1/2 phosphorylation above vehicle-treated controls,"[2]; 1 µM, 3 min, CB2-low, CB2-mid, CB2-high subclones",significant increase
same,Time of peak of ERK1/2 phosphorylation,"[2]; 1 µM, CB2-expressing subclones",3 min
same,Time of return of ERK1/2 phosphorylation to basal,"[2]; 1 µM, CB2-expressing subclones",10 to 20 min
same,Cell death by apoptosis,[13]; 3 days after treatment,27%
same,Cell death by apoptosis,[13]; after five days,78%
same,Phosphorylation state of JNK and p38,[14],150–170 % of basal
